Reference: US20230391781A1, “MALT1 MODULATORS AND USES THEREOF” (Rheos Medicines, Inc., priority 2020, published 2023)
Converted amounts (≈) assume the structure as drawn.

How the values were obtained:
[1] = system: IL-2 in Jurkat (ATCC, clone E6.1) cells stimulated with anti-CD3/28/2; experiment: Jurkat IL-2 Assay; type: cell-based; conditions: Homo sapiens; IL-2 inhibition, Jurkat cells, 30 min compound then anti-CD3/28/2 stimulation for 24 hours; mean value if tested more than once; read-out: IC50
Procedure, shortened: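 Jurkat E6.1 T cells in RPMI/10% FBS (below passage 25) were preincubated with a compound dose-response for 30 min, then stimulated with soluble anti-CD3/28/2 for 24 h. IL-2 in the supernatant was measured by MSD immunoassay and viability by CellTiter-Glo luminescence. IC50 came from a 4-parameter fit, reported as ranges, with the mean used where tested repeatedly.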

[2] = target: full length MALT1 (Homo sapiens (Human), UniProt Q9UDY8); experiment: MALT1 Biochemical Assay; conditions: 15 nM enzyme, 30 μM peptide substrate Ac-Leu-Arg-Ser-Arg-Rh110-dPro, 30 min pre-incubation, 60 min reaction; mean value if tested more than once
Procedure, shortened: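 Full-length human MALT1 was pre-incubated with compound for 30 min, then cleaved a fluorogenic peptide for 60 min in 50 mM Hepes pH 7.5 with 0.8 M sodium citrate and 1 mM DTT. The reaction was quenched with 10 mM iodoacetate and fluorescence was read at 485/520 nm. IC50 came from four-parameter logistic fits of percent inhibition.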

[3] = Thermodynamic Solubility (Ts) Assay in Fasted State Simulated Intestinal Fluid (FaSSIF); type: physicochemical; conditions: thermodynamic from solid, FaSSIF pH 6.5, shake flask, 25° C., HPLC-UV
Protocol: The solubilities of various compounds of formula (I) were determined using a thermodynamic solubility assay. The thermodynamic solubility assay employed the shake flask method followed by HPLC-UV analysis. The following stepwise procedure was followed:
Samples of no less than 2.0 mg were weighed into the lower chambers of Whatman mini-uniprep vials (catalog number UN203NPUORG) and 450 μL of FaSSIF media (0.056% (w/v) lecithin, 0.161% (w/v) sodium taurocholate, 0.39% (w/v) monobasic potassium phosphate, 0.77% (w/v) potassium chloride, deionized H2O, pH 6.5) was added into each vial.
After the buffer was added, the filter pistons of the mini-uniprep vials were placed to the position of the liquid level to ensure the full contact of buffer and compound with the filter during the incubation.
The samples were then vortexed for 2 minutes, after which they were incubated at 25° C. with shaking (880 rpm) for 24 hours.
The samples were then centrifuged at 4000 rpm (20° C.) for 10 min.
The miniunipreps were then compressed to prepare filtrates, and the test concentration of the compound in the filtrate was determined using HPLC-UV (Waters XBridge C18, 4.6*100 mm column; mobile phase A: 0.1% TFA in H2O; mobile phase B: 0.1% TFA in acetonitrile). At least 5 UV standard solutions (e.g. amiodarone hydrochloride, carbamazepine, dexamethasone) were injected into the HPLC from low to high concentration subsequently followed by testing of the thermodynamic solubility supernatants in duplicate. The solubilities of the tested compounds are given in μg/mL.

[4] = High Throughput Dialysis (HTD) Human Plasma Protein Binding Assay; type: in vitro ADME; conditions: pooled human plasma, pH 7.4, equilibrium dialysis, 37° C., read-out: Human PPB (% Unbound)
Protocol: Human plasma protein binding of various compounds of formula (I) were evaluated using the equilibrium dialysis method described herein.
The dialysis membrane strips (HTD % a/b, catalog number 1101, HTDialysis LLC, Gales Ferry, CT, USA) were soaked in ultra-pure water at room temperature for approximately 1 hour. Each membrane strip containing 2 membranes was separated and soaked in 20:80 ethanol/water (v/v) for approximately 20 minutes, after which they were ready for use or were stored in the solution at 2-8° C. for up to a month. Prior to the experiment, the membrane was rinsed three times and soaked for 20 minutes in ultra-pure water.
On the day of experiment, the human plasma (BiolVT, catalog number […], sodium heparin or EDTA-K2 anticoagulant, multiple individuals pooled) was thawed by running under cold tap water and centrifuged at 3220 rpm for 5 minutes to remove any clots. The pH value of the resulting plasma was confirmed to be 7.0-8.0.
The test compounds and warfarin control (Stru Chem, catalog number SC-16139) were dissolved in dimethyl sulfoxide (DMSO) to obtain 10 mM stock solutions. DMSO working solutions were prepared at 400 μM. To prepare the loading matrix, the compound working solutions (5 μL) were added in a 1:200 ratio to blank human plasma (995 μL) and mixed thoroughly.
The time zero (T0) samples to be used for recovery determination were prepared as follows: 50 μL aliquots of loading matrix were transferred in triplicate to the sample collection plate. The samples were immediately matched with opposite blank buffer (basic solution (14.2 g/L Na2HPO4 and 8.77 g/L NaCl in deionized water) titrated with acidic solution (15.6 g/L NaH2PO4·2H2O and 8.77 g/L NaCl in deionized water) to pH 7.4±0.1) to obtain a final volume of 100 μL of 1:1 matrix/dialysis buffer (v/v) in each well. 500 μL stop solution (200 ng/mL tolbutamide and 200 ng/mL labetalol in acetonitrile) were added to these TO samples. They were then stored at 2-8° C. for further processing along with other post-dialysis samples.
To load the dialysis device (96-well equilibrium dialysis plate, model 96b, catalog number 1006. HTDialysis LLC, Gales Ferry, CT, USA), an aliquot of 150 μL of the loading matrix was transferred to the donor side of each dialysis well in triplicate, and 150 μL of the dialysis buffer was loaded to the receiver side of the well. The dialysis plate was placed in a humidified incubator at 37° C. with 5% CO2 on a shaking platform that rotated slowly (about 100 rpm) for 4 hours.
At the end of the dialysis, aliquots of 50 μL of the samples were taken from both the buffer side and the matrix side of the dialysis device. These samples were transferred into new 96-well plates (polypropylene, 2.2 mL/well, catalog number DWP-22-96-SQ-U-C-L. Apricot). Each sample was mixed with an equal volume of opposite blank matrix (buffer or matrix) to reach a final volume of 100 μL of 1:1 matrix/dialysis buffer (v/v) in each well. All samples were further processed by adding 500 μL of stop solution containing internal standards. The mixture was vortexed and centrifuged at 4000 rpm for about 20 minutes. An aliquot of 100 μL of supernatant of all the samples was then removed for LC-MS/MS analysis. Test compound concentrations in matrix and buffer samples were expressed as peak area ratios (PAR) of analyte/internal standard (no standard curve).
The single blank samples were prepared by transferring 50 μL of blank matrix to a 96 well plate (polypropylene. 2.2 mL/well, catalog number DWP-22-96-SQ-U-C-L, Apricot) and adding 50 μL of blank PBS buffer to each well. The blank plasma must match the species of plasma used in the plasma side of the well. Then the matrix-matched samples were further processed by adding 500 μL of stop solution containing internal standards, following the same sample processing method as the dialysis samples. […]

full length MALT1, sequence (Q9UDY8 whole entry): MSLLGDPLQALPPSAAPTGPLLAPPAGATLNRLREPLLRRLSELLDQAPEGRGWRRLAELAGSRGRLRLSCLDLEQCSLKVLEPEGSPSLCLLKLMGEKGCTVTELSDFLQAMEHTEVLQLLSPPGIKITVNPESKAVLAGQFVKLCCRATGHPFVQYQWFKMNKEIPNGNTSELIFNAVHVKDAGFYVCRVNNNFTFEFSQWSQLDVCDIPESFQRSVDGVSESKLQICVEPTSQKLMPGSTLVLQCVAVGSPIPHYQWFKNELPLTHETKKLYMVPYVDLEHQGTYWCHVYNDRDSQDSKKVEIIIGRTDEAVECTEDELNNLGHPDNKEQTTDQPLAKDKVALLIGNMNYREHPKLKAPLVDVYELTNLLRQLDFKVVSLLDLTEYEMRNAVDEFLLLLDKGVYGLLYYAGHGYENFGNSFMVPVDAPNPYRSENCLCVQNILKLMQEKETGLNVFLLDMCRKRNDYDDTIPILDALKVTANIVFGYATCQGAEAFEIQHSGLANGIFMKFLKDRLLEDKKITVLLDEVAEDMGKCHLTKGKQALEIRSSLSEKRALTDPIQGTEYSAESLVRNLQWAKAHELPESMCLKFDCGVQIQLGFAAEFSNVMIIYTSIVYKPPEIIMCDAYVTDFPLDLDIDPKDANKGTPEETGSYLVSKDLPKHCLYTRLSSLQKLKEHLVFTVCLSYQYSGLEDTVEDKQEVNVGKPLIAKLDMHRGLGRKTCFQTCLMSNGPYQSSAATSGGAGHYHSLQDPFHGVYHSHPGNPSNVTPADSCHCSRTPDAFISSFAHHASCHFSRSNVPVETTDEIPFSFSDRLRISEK

SMILES	IC50 [1]	IC50 [2]	solubility at 24 h [3]	fraction unbound at 4 h, 2 µM [4]
CO[C@@H](C)c1c(Nc2ccc([C@H](N(C)C(=O)C3CCN(S(C)(=O)=O)CC3)C(F)(F)F)cc2)cnc2nc(Cl)nn12 [Compound 3.4, N-[(1S)-1-[4-({2-chloro-7-[(1S)-1-methoxyethyl]-[1,2,4]triazolo[1,5-a]pyrimidin-6-yl}amino)phenyl]-2,2,2-trifluoroethyl]-1-methanesulfonyl-N-methylpiperidine-4-carboxamide]	100 to 1000 nM	< 100 nM	< 250 µg/mL	< 0.08
CO[C@@H](C)c1c(Nc2ccc([C@H](N(C)C(=O)C3CN(C(C)=O)C3)C(F)(F)F)cc2)cnc2nc(Cl)nn12 [Compound 1.15, 1-acetyl-N-[(1S)-1-[4-({2-chloro-7-[(1S)-1-methoxyethyl]-[1,2,4]triazolo[1,5-a]pyrimidin-6-yl}amino)phenyl]-2,2,2-trifluoroethyl]-N-methylazetidine-3-carboxamide]	100 to 1000 nM	100 to 1000 nM	> 1750 µg/mL	> 0.2
CC(C)c1c(Nc2ccc([C@H](N(C)C(=O)C3CCS(=O)(=O)CC3)C(F)(F)F)cc2)cnc2nc(Cl)nn12 [Compound 1.18, N-[(1S)-1-(4-{[2-chloro-7-(propan-2-yl)-[1,2,4]triazolo[1,5-a]pyrimidin-6-yl]amino}phenyl)-2,2,2-trifluoroethyl]-N-methyl-1,1-dioxo-1λ^6-thiane-4-carboxamide]	< 100 nM	< 100 nM	< 250 µg/mL	< 0.08

Next, values leading:

IC50 [1]	IC50 [2]	solubility at 24 h [3]	fraction unbound at 4 h, 2 µM [4]	SMILES
100 to 1000 nM	100 to 1000 nM	250 to 1750 µg/mL (≈ 430 to 3010 µM)	0.08 to 0.2	CNC(=O)[C@H]1CC[C@H](C(=O)N(C)[C@@H](c2ccc(Nc3cnc4nc(Cl)nn4c3[C@H](C)OC)cc2)C(F)(F)F)CC1 [Compound 8.2, (1r,4S)—N1-((S)-1-(4-((2-chloro-7-((S)-1-methoxyethyl)-[1,2,4]triazolo[1,5-a]pyrimidin-6-yl)amino)phenyl)-2,2,2-trifluoroethyl)-N1,N4-dimethylcyclohexane-1,4-dicarboxamide]
> 1000 nM	< 100 nM	> 1750 µg/mL	< 0.08	CO[C@@H](C)c1c(Nc2ccc([C@H](N(C)C(=O)[C@H]3C[C@H](c4nnn[nH]4)C3)C(F)(F)F)cc2)cnc2nc(Cl)nn12 [Compound 9.1, (1r,3S)—N—((S)-1-(4-((2-chloro-7-((S)-1-methoxyethyl)-[1,2,4]triazolo[1,5-a]pyrimidin-6-yl)amino)phenyl)-2,2,2-trifluoroethyl)-N-methyl-3-(1H-tetrazol-5-yl)cyclobutane-1-carboxamide]
